{
  "source": "patent EP3689885B1",
  "about": "“HIGHLY EFFECTIVE CONCENTRATES WITH PPDA AND THEIR USE IN STABILIZING MATERIALS IN ANIMAL EXCREMENTS” (SKW STICKSTOFFWERKE PIESTERITZ GmbH, priority 2019, dated 2020)",
  "key": {"Urease": {"system": "Urease", "conditions": "literature (Wenzel et al. 1983; Leinker 2007, laboratory screening); cited from earlier work"}, "[1]": {"experiment": "Maximum solubility of PPDA in solvents / solvent mixtures", "type": "physicochemical", "description": "(§1) PPDA wurde bis zur maximalen Löslichkeit in die Lösungsmittel/ Lösungsmittelgemische eingebracht, die Lösungen wurden bei Raumtemperatur gelagert und der Wirkstoffgehalt (PPDA) nach 48 Wochen mittels HPLC überprüft."}, "[2]": {"experiment": "Stability of the active ingredient (PPDA) in the solution, HPLC", "type": "physicochemical", "conditions": "room temperature, 483840 min", "description": "as §1"}},
  "note": "“Also recorded” adds a separate entry of the source.",
  "data": [
    {"smiles": "NP(N)(=O)Oc1ccccc1", "note": "[PPDA, Phenylphosphorsäurediamid]", "values": [
      {"measurement": "Wirksamkeit als Urease-Inhibitor", "setting": "Urease", "value": "mittlerer Wirkungsstärke; also recorded: nur mittlere Wirksamkeit"},
      {"measurement": "Löslichkeit", "setting": "[1]; DMSO/Diethylenglycolmonomethylether, Anteil LM 1 20 %, room temperature", "value": "3,0%"},
      {"measurement": "Löslichkeit", "setting": "[1]; DMSO/Diethylenglycolmonomethylether, Anteil LM 1 40 %, room temperature", "value": "4,4%"},
      {"measurement": "Löslichkeit", "setting": "[1]; DMSO/Diethylenglycolmonomethylether, Anteil LM 1 60 %, room temperature", "value": "7,8%"},
      {"measurement": "Löslichkeit", "setting": "[1]; DMSO/Diethylenglycolmonomethylether, Anteil LM 1 80 %, room temperature", "value": "11,5%"},
      {"measurement": "Löslichkeit", "setting": "[1]; DMSO/Glycerinformal, Anteil LM 1 20 %, room temperature", "value": "4,1%"},
      {"measurement": "Löslichkeit", "setting": "[1]; DMSO/Glycerinformal, Anteil LM 1 40 %, room temperature", "value": "4,9%"},
      {"measurement": "Löslichkeit", "setting": "[1]; DMSO/Glycerinformal, Anteil LM 1 60 %, room temperature", "value": "6,7%"},
      {"measurement": "Löslichkeit", "setting": "[1]; DMSO/Glycerinformal, Anteil LM 1 80 %, room temperature", "value": "10,3%"},
      {"measurement": "Löslichkeit", "setting": "[1]; DMSO/Propylenglycolmonomethyl ether, Anteil LM 1 20 %, room temperature", "value": "2,2%"},
      {"measurement": "Löslichkeit", "setting": "[1]; DMSO/Propylenglycolmonomethyl ether, Anteil LM 1 40 %, room temperature", "value": "3,5%"},
      {"measurement": "Löslichkeit", "setting": "[1]; DMSO/Propylenglycolmonomethyl ether, Anteil LM 1 60 %, room temperature", "value": "6,2%"},
      {"measurement": "Löslichkeit", "setting": "[1]; DMSO/Propylenglycolmonomethyl ether, Anteil LM 1 80 %, room temperature", "value": "10,7%"},
      {"measurement": "Löslichkeit", "setting": "[1]; DMSO/Pyrrolidon, Anteil LM 1 20 %, room temperature", "value": "6,0%"},
      {"measurement": "Löslichkeit", "setting": "[1]; DMSO/Pyrrolidon, Anteil LM 1 40 %, room temperature", "value": "8,4%"},
      {"measurement": "Löslichkeit", "setting": "[1]; DMSO/Pyrrolidon, Anteil LM 1 60 %, room temperature", "value": "9,9%"},
      {"measurement": "Löslichkeit", "setting": "[1]; DMSO/Pyrrolidon, Anteil LM 1 80 %, room temperature", "value": "12,0%"},
      {"measurement": "Löslichkeit", "setting": "[1]; DMSO, room temperature", "value": "11,5%"},
      {"measurement": "Löslichkeit", "setting": "[1]; Diethylenenglycolmonomethylether / Glycerinformal, Anteil LM 1 20 %, room temperature", "value": "3,9%"},
      {"measurement": "Löslichkeit", "setting": "[1]; Diethylenenglycolmonomethylether / Glycerinformal, Anteil LM 1 40 %, room temperature", "value": "3,3%"},
      {"measurement": "Löslichkeit", "setting": "[1]; Diethylenenglycolmonomethylether / Glycerinformal, Anteil LM 1 60 %, room temperature", "value": "3,1%"},
      {"measurement": "Löslichkeit", "setting": "[1]; Diethylenenglycolmonomethylether / Glycerinformal, Anteil LM 1 80 %, room temperature", "value": "2,6%"},
      {"measurement": "Löslichkeit", "setting": "[1]; Propylenglycol monomethylether / Glycerinformal, Anteil LM 1 20 %, room temperature", "value": "2,8%"},
      {"measurement": "Löslichkeit", "setting": "[1]; Propylenglycol monomethylether / Glycerinformal, Anteil LM 1 40 %, room temperature", "value": "2,7%"},
      {"measurement": "Löslichkeit", "setting": "[1]; Propylenglycol monomethylether / Glycerinformal, Anteil LM 1 60 %, room temperature", "value": "2,2%"},
      {"measurement": "Löslichkeit", "setting": "[1]; Propylenglycol monomethylether / Glycerinformal, Anteil LM 1 80 %, room temperature", "value": "1,5%"},
      {"measurement": "Löslichkeit", "setting": "[1]; Propylenglycol monomethylether / Pyrrolidon, Anteil LM 1 40 %, room temperature", "value": "3,7%"},
      {"measurement": "Löslichkeit", "setting": "[1]; Propylenglycol monomethylether / Pyrrolidon, Anteil LM 1 60 %, room temperature", "value": "2,9%"},
      {"measurement": "Löslichkeit", "setting": "[1]; Propylenglycol monomethylether / Pyrrolidon, Anteil LM 1 80 %, room temperature", "value": "1,1%"},
      {"measurement": "Löslichkeit", "setting": "[1]; Pyrrolidon / Glycerinformal, Anteil LM 1 20 %, room temperature", "value": "4,3%"},
      {"measurement": "Löslichkeit", "setting": "[1]; Tetraethylenglycol / Pyrrolidon, Anteil LM 1 40 %, room temperature", "value": "5,5%"},
      {"measurement": "Löslichkeit", "setting": "[1]; Tetraethylenglycol / Pyrrolidon, Anteil LM 1 60 %, room temperature", "value": "3,6%"},
      {"measurement": "Löslichkeit", "setting": "[1]; in most solvents generally known as good solvents for phosphoric acid amides (not named)", "value": "< 1", "unit": "%"},
      {"measurement": "Wirkstoffwiederfindung nach 48 Wochen", "setting": "[2]; saturated solution in DMSO", "value": 81, "unit": "%"},
      {"measurement": "Wirkstoffwiederfindung nach 48 Wochen", "setting": "[2]; saturated solution in DMSO/Diethylenglycolmonomethylether, Anteil LM 1 20 %", "value": 83, "unit": "%"},
      {"measurement": "Wirkstoffwiederfindung nach 48 Wochen", "setting": "[2]; saturated solution in DMSO/Diethylenglycolmonomethylether, Anteil LM 1 40 %", "value": 85, "unit": "%"},
      {"measurement": "Wirkstoffwiederfindung nach 48 Wochen", "setting": "[2]; saturated solution in DMSO/Diethylenglycolmonomethylether, Anteil LM 1 60 %", "value": 93, "unit": "%"},
      {"measurement": "Wirkstoffwiederfindung nach 48 Wochen", "setting": "[2]; saturated solution in DMSO/Diethylenglycolmonomethylether, Anteil LM 1 80 %", "value": 80, "unit": "%"},
      {"measurement": "Wirkstoffwiederfindung nach 48 Wochen", "setting": "[2]; saturated solution in DMSO/Glycerinformal, Anteil LM 1 20 %", "value": 82, "unit": "%"},
      {"measurement": "Wirkstoffwiederfindung nach 48 Wochen", "setting": "[2]; saturated solution in DMSO/Glycerinformal, Anteil LM 1 40 %", "value": 91, "unit": "%"},
      {"measurement": "Wirkstoffwiederfindung nach 48 Wochen", "setting": "[2]; saturated solution in DMSO/Glycerinformal, Anteil LM 1 60 %", "value": 92, "unit": "%"},
      {"measurement": "Wirkstoffwiederfindung nach 48 Wochen", "setting": "[2]; saturated solution in DMSO/Glycerinformal, Anteil LM 1 80 %", "value": 86, "unit": "%"},
      {"measurement": "Wirkstoffwiederfindung nach 48 Wochen", "setting": "[2]; saturated solution in DMSO/Propylenglycolmonomethyl ether, Anteil LM 1 20 %", "value": 100, "unit": "%"},
      {"measurement": "Wirkstoffwiederfindung nach 48 Wochen", "setting": "[2]; saturated solution in DMSO/Propylenglycolmonomethyl ether, Anteil LM 1 40 %", "value": 100, "unit": "%"},
      {"measurement": "Wirkstoffwiederfindung nach 48 Wochen", "setting": "[2]; saturated solution in DMSO/Propylenglycolmonomethyl ether, Anteil LM 1 60 %", "value": 95, "unit": "%"},
      {"measurement": "Wirkstoffwiederfindung nach 48 Wochen", "setting": "[2]; saturated solution in DMSO/Propylenglycolmonomethyl ether, Anteil LM 1 80 %", "value": 89, "unit": "%"},
      {"measurement": "Wirkstoffwiederfindung nach 48 Wochen", "setting": "[2]; saturated solution in DMSO/Pyrrolidon, Anteil LM 1 20 %", "value": 79, "unit": "%"},
      {"measurement": "Wirkstoffwiederfindung nach 48 Wochen", "setting": "[2]; saturated solution in DMSO/Pyrrolidon, Anteil LM 1 40 %", "value": 88, "unit": "%"},
      {"measurement": "Wirkstoffwiederfindung nach 48 Wochen", "setting": "[2]; saturated solution in DMSO/Pyrrolidon, Anteil LM 1 60 %", "value": 93, "unit": "%"},
      {"measurement": "Wirkstoffwiederfindung nach 48 Wochen", "setting": "[2]; saturated solution in DMSO/Pyrrolidon, Anteil LM 1 80 %", "value": 92, "unit": "%"},
      {"measurement": "Wirkstoffwiederfindung nach 48 Wochen", "setting": "[2]; saturated solution in Diethylenenglycolmonomethylether / Glycerinformal, Anteil LM 1 20 %", "value": 85, "unit": "%"},
      {"measurement": "Wirkstoffwiederfindung nach 48 Wochen", "setting": "[2]; saturated solution in Diethylenenglycolmonomethylether / Glycerinformal, Anteil LM 1 40 %", "value": 89, "unit": "%"},
      {"measurement": "Wirkstoffwiederfindung nach 48 Wochen", "setting": "[2]; saturated solution in Diethylenenglycolmonomethylether / Glycerinformal, Anteil LM 1 60 %", "value": 72, "unit": "%"},
      {"measurement": "Wirkstoffwiederfindung nach 48 Wochen", "setting": "[2]; saturated solution in Diethylenenglycolmonomethylether / Glycerinformal, Anteil LM 1 80 %", "value": 73, "unit": "%"},
      {"measurement": "Wirkstoffwiederfindung nach 48 Wochen", "setting": "[2]; saturated solution in Propylenglycol monomethylether / Glycerinformal, Anteil LM 1 20 %", "value": 93, "unit": "%"},
      {"measurement": "Wirkstoffwiederfindung nach 48 Wochen", "setting": "[2]; saturated solution in Propylenglycol monomethylether / Glycerinformal, Anteil LM 1 40 %", "value": 100, "unit": "%"},
      {"measurement": "Wirkstoffwiederfindung nach 48 Wochen", "setting": "[2]; saturated solution in Propylenglycol monomethylether / Glycerinformal, Anteil LM 1 60 %", "value": 100, "unit": "%"},
      {"measurement": "Wirkstoffwiederfindung nach 48 Wochen", "setting": "[2]; saturated solution in Propylenglycol monomethylether / Glycerinformal, Anteil LM 1 80 %", "value": 100, "unit": "%"},
      {"measurement": "Wirkstoffwiederfindung nach 48 Wochen", "setting": "[2]; saturated solution in Propylenglycol monomethylether / Pyrrolidon, Anteil LM 1 40 %", "value": 100, "unit": "%"},
      {"measurement": "Wirkstoffwiederfindung nach 48 Wochen", "setting": "[2]; saturated solution in Propylenglycol monomethylether / Pyrrolidon, Anteil LM 1 60 %", "value": 100, "unit": "%"},
      {"measurement": "Wirkstoffwiederfindung nach 48 Wochen", "setting": "[2]; saturated solution in Propylenglycol monomethylether / Pyrrolidon, Anteil LM 1 80 %", "value": 100, "unit": "%"},
      {"measurement": "Wirkstoffwiederfindung nach 48 Wochen", "setting": "[2]; saturated solution in Pyrrolidon / Glycerinformal, Anteil LM 1 20 %", "value": 72, "unit": "%"},
      {"measurement": "Wirkstoffwiederfindung nach 48 Wochen", "setting": "[2]; saturated solution in Tetraethylenglycol / Pyrrolidon, Anteil LM 1 40 %", "value": 87, "unit": "%"},
      {"measurement": "Wirkstoffwiederfindung nach 48 Wochen", "setting": "[2]; saturated solution in Tetraethylenglycol / Pyrrolidon, Anteil LM 1 60 %", "value": 76, "unit": "%"}
    ]}
  ]
}
